According to US20250066346A1, “SOLID FORMS OF A BENZTHIAZOLE-PIPERAZINYL-OXAZOLE COMPOUND AND METHODS OF USE THEREOF” (Hepagene Therapeutics (HK) Limited, priority 2022, published 2025):
≈ marks a conversion by molar mass, not a printed value. Where a name gives a salt, the structure may show the parent alone. Blank lines part the entries; values can stand above or below the compound they belong to.

Experiments:
Format in all cases: physicochemical
[1] = Solid state stability (XRPD for physical stability, HPLC purity for chemical stability); conditions: for Purity/initial purity: HPLC; for Form change: XRPD
Text: All the samples were characterized by XRPD for physical stability and HPLC purity for chemical stability evaluation (Table 16).

[2] = Kinetic solubility in water and bio-relevant media (SGF, FaSSIF, FeSSIF) at 37° C.; parameters: key to FC: form change: Yes: form changed; No: form not changed; conditions: for pH: filtered supernatant
Description: Agilent 1260 HPLC was utilized and detailed chromatographic conditions are provided in Tables 3 and 4 for purity and solubility test, respectively.
About 20 mg of free base (form A) HCl salt (form B), and HBr salt (form D) were added to a 5-mL glass vials followed by the addition of 4 mL of the corresponding medium/solvent into each glass vial to form a suspension. The vials were capped and rolled at 37° C. (25 rpm). Samples were removed (1 mL) at 1 h, 4 h, and 24 h and centrifuged (14000 rpm, 2 min, room temperature). The supernatant was filtered through 0.22 μm syringe filter (first few drops of filtrate were discarded) for HPLC solubility and pH tests (Table 15). The residual solids were analyzed by XRPD.

[3] = Hygroscopicity by dynamic vapor sorption (DVS) at 25° C.
Description: DVS was measured via a SMS (Surface Measurement Systems) DVS Intrinsic. The relative humidity at 25° C. was calibrated against deliquescence point of LiCl, Mg(NO3)2 and KCl.

[4] = Approximate solubility of Form A in solvents at room temperature (stepwise solvent addition, visual); conditions: organic solvent or mixture, thermodynamic from solid
Description: Approximately 2 mg of Form A of Compound I was added into a 3-mL glass vial. At room temperature, the solvents in Table 8 were then added stepwise into the vials until the solids were dissolved visually or a total volume of 2 mL was reached.

[5] = 80° C./1 day, 25° C./60% RH/1 week, 40° C./75% RH/1 week

Purity/initial purity ([1]; 25° C./60% RH/1 week): 99.9%
Form change ([1]; 25° C./60% RH/1 week): No
Purity/initial purity ([1]; 40° C./75% RH/1 week): 99.9%
Form change ([1]; 40° C./75% RH/1 week): No
HPLC purity after storage (in words) ([1]; 80° C. for 1 day): decreased
Purity/initial purity ([1]; 80° C./1 day): 99.5%
Form change ([1]; 80° C./1 day): No
form change (in words) ([1]; all test conditions): no form change was observed
solubility in FaSSIF and FeSSIF (in words) [2]: significant solubility improvement
FC: form change ([2]; FaSSIF, 1 hr): No
S: solubility ([2]; FaSSIF, 1 hr): 0.32 mg/mL
pH ([2]; FaSSIF, 1 hr): 6.3
FC: form change ([2]; FaSSIF, 4 hrs): No
S: solubility ([2]; FaSSIF, 4 hrs): 0.46 mg/mL
pH ([2]; FaSSIF, 4 hrs): 6.3
FC: form change ([2]; FaSSIF, 24 hrs): No
S: solubility ([2]; FaSSIF, 24 hrs): 0.64 mg/mL
pH ([2]; FaSSIF, 24 hrs): 6.3
FC: form change ([2]; FeSSIF, 1 hr): No
S: solubility ([2]; FeSSIF, 1 hr): 0.66 mg/mL
pH ([2]; FeSSIF, 1 hr): 5.1
FC: form change ([2]; FeSSIF, 4 hrs): No
S: solubility ([2]; FeSSIF, 4 hrs): 0.71 mg/mL
pH ([2]; FeSSIF, 4 hrs): 5.1
FC: form change ([2]; FeSSIF, 24 hrs): No
S: solubility ([2]; FeSSIF, 24 hrs): 0.78 mg/mL
pH ([2]; FeSSIF, 24 hrs): 5.0
FC: form change ([2]; H2O, 1 hr): No
S: solubility ([2]; H2O, 1 hr): 0.0006 mg/mL
pH ([2]; H2O, 1 hr): 3.0
FC: form change ([2]; H2O, 4 hrs): No
S: solubility ([2]; H2O, 4 hrs): 0.0007 mg/mL
pH ([2]; H2O, 4 hrs): 3.0
FC: form change ([2]; H2O, 24 hrs): No
S: solubility ([2]; H2O, 24 hrs): 0.0006 mg/mL
pH ([2]; H2O, 24 hrs): 3.0
FC: form change ([2]; SGF, 1 hr): No
S: solubility ([2]; SGF, 1 hr): 0.031 mg/mL
pH ([2]; SGF, 1 hr): 1.9
FC: form change ([2]; SGF, 4 hrs): No
S: solubility ([2]; SGF, 4 hrs): 0.030 mg/mL
pH ([2]; SGF, 4 hrs): 1.9
FC: form change ([2]; SGF, 24 hrs): Yes
S: solubility ([2]; SGF, 24 hrs): 0.043 mg/mL
pH ([2]; SGF, 24 hrs): 1.7
solubility in SGF, FaSSIF, and FeSSIF compared with free base (form A) and HCl salt (form B) ([2]; SGF, FaSSIF, FeSSIF): improved solubility
solubility in water, ranking among form A, form B, form D ([2]; water): lowest solubility
water uptake ([3]; in the range of 0% RH to 20% RH, platform between 20% RH and 80% RH): 2.6%
Compound: COc1cc(C(=O)O)cc2sc(N3CCN(Cc4c(-c5c(Cl)cccc5Cl)noc4C4CC4)C[C@H]3C)nc12 [HBr salt Form D, (R)-2-(4-((5-cyclopropyl-3-(2,6-dichlorophenyl)isoxazol-4-yl)methyl)-2-methylpiperazin-1-yl)-4-methoxybenzo[d]thiazole-6-carboxylic acid]

Purity/initial purity ([1]; 25° C./60% RH/1 week): 100.0%
Form change ([1]; 25° C./60% RH/1 week): No
Purity/initial purity ([1]; 40° C./75% RH/1 week): 99.9%
Form change ([1]; 40° C./75% RH/1 week): No
solid state stability (overall, in words) [1, 5]: good solid state stability
Purity/initial purity ([1]; 80° C./1 day): 99.8%
Form change ([1]; 80° C./1 day): No
FC: form change ([2]; FaSSIF, 1 hr): No
S: solubility ([2]; FaSSIF, 1 hr): 0.016 mg/mL
pH ([2]; FaSSIF, 1 hr): 6.4
FC: form change ([2]; FaSSIF, 4 hrs): No
S: solubility ([2]; FaSSIF, 4 hrs): 0.017 mg/mL
pH ([2]; FaSSIF, 4 hrs): 6.5
FC: form change ([2]; FaSSIF, 24 hrs): No
S: solubility ([2]; FaSSIF, 24 hrs): 0.022 mg/mL
pH ([2]; FaSSIF, 24 hrs): 6.4
FC: form change ([2]; FeSSIF, 1 hr): No
S: solubility ([2]; FeSSIF, 1 hr): 0.051 mg/mL
pH ([2]; FeSSIF, 1 hr): 5.0
FC: form change ([2]; FeSSIF, 4 hrs): No
S: solubility ([2]; FeSSIF, 4 hrs): 0.056 mg/mL
pH ([2]; FeSSIF, 4 hrs): 5.1
FC: form change ([2]; FeSSIF, 24 hrs): No
S: solubility ([2]; FeSSIF, 24 hrs): 0.056 mg/mL
pH ([2]; FeSSIF, 24 hrs): 5.1
FC: form change ([2]; H2O, 1 hr): No
S: solubility ([2]; H2O, 1 hr): 0.003 mg/mL
pH ([2]; H2O, 1 hr): 6.2
FC: form change ([2]; H2O, 4 hrs): No
S: solubility ([2]; H2O, 4 hrs): 0.0023 mg/mL
pH ([2]; H2O, 4 hrs): 6.3
FC: form change ([2]; H2O, 24 hrs): No
S: solubility ([2]; H2O, 24 hrs): 0.0046 mg/mL
pH ([2]; H2O, 24 hrs): 6.4
FC: form change ([2]; SGF, 1 hr): No
S: solubility ([2]; SGF, 1 hr): 0.020 mg/mL
pH ([2]; SGF, 1 hr): 2.1
FC: form change ([2]; SGF, 4 hrs): No
S: solubility ([2]; SGF, 4 hrs): 0.018 mg/mL
pH ([2]; SGF, 4 hrs): 1.8
FC: form change ([2]; SGF, 24 hrs): No
S: solubility ([2]; SGF, 24 hrs): 0.017 mg/mL
pH ([2]; SGF, 24 hrs): 2.0
solubility ([2]; water, 37 °C, thermodynamic from solid, text summary of Table 15): < 0.007 mg/mL
solubility ([4]; 2-MeTHF): > 40 mg/mL
solubility ([4]; ACN): 4.8 to 9.5 mg/mL (≈ 8.37 to 16.6 mM)
solubility ([4]; Acetone): > 42 mg/mL
solubility ([4]; CPME): 11.5 to 23 mg/mL (≈ 20.1 to 40.1 mM)
solubility ([4]; CPME/n-heptane (2:1)): 2.3 to 4.6 mg/mL (≈ 4.01 to 8.02 mM)
solubility ([4]; EtOAc): 10 to 20 mg/mL (≈ 17.4 to 34.9 mM)
solubility ([4]; IPAc): 3.8 to 6.3 mg/mL (≈ 6.63 to 11 mM)
solubility ([4]; MIBK): 10 to 20 mg/mL (≈ 17.4 to 34.9 mM)
solubility ([4]; MIBK/n-heptane (2:1)): 4.2 to 7 mg/mL (≈ 7.32 to 12.2 mM)
solubility ([4]; MeOH): 10.5 to 21 mg/mL (≈ 18.3 to 36.6 mM)
solubility ([4]; MeOH/H2O (9:1)): 5.3 to 10.5 mg/mL (≈ 9.24 to 18.3 mM)
solubility ([4]; THF): > 40 mg/mL
solubility ([4]; THF/n-heptane (2:1)): > 38 mg/mL
hygroscopicity (in words) ([3]; DVS): non-hygroscopic
water uptake ([3]; at 80% RH): 0.15%
Compound: COc1cc(C(=O)O)cc2sc(N3CCN(Cc4c(-c5c(Cl)cccc5Cl)noc4C4CC4)C[C@H]3C)nc12 [Form A, (R)-2-(4-((5-cyclopropyl-3-(2,6-dichlorophenyl)isoxazol-4-yl)methyl)-2-methylpiperazin-1-yl)-4-methoxybenzo[d]thiazole-6-carboxylic acid]

Purity/initial purity ([1]; 25° C./60% RH/1 week): 100.0%
Form change ([1]; 25° C./60% RH/1 week): No
Purity/initial purity ([1]; 40° C./75% RH/1 week): 100.0%
Form change ([1]; 40° C./75% RH/1 week): No
solid state stability (overall, in words) [1, 5]: good solid state stability
Purity/initial purity ([1]; 80° C./1 day): 100.0%
Form change ([1]; 80° C./1 day): No
solubility in FaSSIF and FeSSIF (in words) [2]: significant solubility improvement
FC: form change ([2]; FaSSIF, 1 hr): No
S: solubility ([2]; FaSSIF, 1 hr): 0.29 mg/mL
pH ([2]; FaSSIF, 1 hr): 6.5
FC: form change ([2]; FaSSIF, 4 hrs): No
S: solubility ([2]; FaSSIF, 4 hrs): 0.42 mg/mL
pH ([2]; FaSSIF, 4 hrs): 6.5
FC: form change ([2]; FaSSIF, 24 hrs): No
S: solubility ([2]; FaSSIF, 24 hrs): 0.57 mg/mL
pH ([2]; FaSSIF, 24 hrs): 6.4
FC: form change ([2]; FeSSIF, 1 hr): No
S: solubility ([2]; FeSSIF, 1 hr): 0.48 mg/mL
pH ([2]; FeSSIF, 1 hr): 5.1
FC: form change ([2]; FeSSIF, 4 hrs): No
S: solubility ([2]; FeSSIF, 4 hrs): 0.48 mg/mL
pH ([2]; FeSSIF, 4 hrs): 5.0
FC: form change ([2]; FeSSIF, 24 hrs): No
S: solubility ([2]; FeSSIF, 24 hrs): 0.50 mg/mL
pH ([2]; FeSSIF, 24 hrs): 5.0
FC: form change ([2]; H2O, 1 hr): No
S: solubility ([2]; H2O, 1 hr): 0.0049 mg/mL
pH ([2]; H2O, 1 hr): 6.1
FC: form change ([2]; H2O, 4 hrs): No
S: solubility ([2]; H2O, 4 hrs): 0.0056 mg/mL
pH ([2]; H2O, 4 hrs): 5.9
FC: form change ([2]; H2O, 24 hrs): No
S: solubility ([2]; H2O, 24 hrs): 0.0061 mg/mL
pH ([2]; H2O, 24 hrs): 6.4
FC: form change ([2]; SGF, 1 hr): No
S: solubility ([2]; SGF, 1 hr): 0.061 mg/mL
pH ([2]; SGF, 1 hr): 1.8
FC: form change ([2]; SGF, 4 hrs): No
S: solubility ([2]; SGF, 4 hrs): 0.048 mg/mL
pH ([2]; SGF, 4 hrs): 1.9
FC: form change ([2]; SGF, 24 hrs): Yes
S: solubility ([2]; SGF, 24 hrs): 0.039 mg/mL
pH ([2]; SGF, 24 hrs): 1.8
water uptake ([3]; in the range of 0% RH to 30% RH, platform between 30% RH and 95% RH): 2.5%
Compound: COc1cc(C(=O)O)cc2sc(N3CCN(Cc4c(-c5c(Cl)cccc5Cl)noc4C4CC4)C[C@H]3C)nc12 [HCl salt Form B, (R)-2-(4-((5-cyclopropyl-3-(2,6-dichlorophenyl)isoxazol-4-yl)methyl)-2-methylpiperazin-1-yl)-4-methoxybenzo[d]thiazole-6-carboxylic acid]
